The record followed here is patent US20260209193A1, “NOVEL INHIBITORS OF DNA DAMAGE RESPONSES FOR CANCER THERAPY” (The Regents of the University of California, priority 2022, published 2026).

This test addresses T1, PARP1 (Homo sapiens, UniProt P09874).
T1 construct: endogenous in cells; host or cells: PC3
The test can be described thus: PARP1 trapping, chromatin fractionation (chromatin-bound fraction). Format: cell-based. Conditions: PC3 cells. The source says: The trapped PARP1 forms a toxic lesion and stalls the progress of replication forks. The replication fork collapses in BRCA1/2-deficient cancer cells, and then results in cell death. […] Six cancer cell lines were used in this assay, including two breast cancer cell lines, BRCA1-mutunt SUM149PT-BRCA1mut and SUM149PT-BRCA1rev where deleterious BRCA1 mutation is reverted to form a functional BRCA1, two ovarian cancer cell lines, BRCA1-null UWB1.289 and UWB1.289+BRCA1, a stable cell line in which wild-type BRCA1 function has been restored, and two prostate cancer cell lines, enzalutamide resistant C4-2B/MR which is homologous recombination (HR)-deficient due to Rad51 mutation, and enzalutamide insensitive PC3 which is HR-proficient.

T1 sequence (P09874 whole entry, species assumed): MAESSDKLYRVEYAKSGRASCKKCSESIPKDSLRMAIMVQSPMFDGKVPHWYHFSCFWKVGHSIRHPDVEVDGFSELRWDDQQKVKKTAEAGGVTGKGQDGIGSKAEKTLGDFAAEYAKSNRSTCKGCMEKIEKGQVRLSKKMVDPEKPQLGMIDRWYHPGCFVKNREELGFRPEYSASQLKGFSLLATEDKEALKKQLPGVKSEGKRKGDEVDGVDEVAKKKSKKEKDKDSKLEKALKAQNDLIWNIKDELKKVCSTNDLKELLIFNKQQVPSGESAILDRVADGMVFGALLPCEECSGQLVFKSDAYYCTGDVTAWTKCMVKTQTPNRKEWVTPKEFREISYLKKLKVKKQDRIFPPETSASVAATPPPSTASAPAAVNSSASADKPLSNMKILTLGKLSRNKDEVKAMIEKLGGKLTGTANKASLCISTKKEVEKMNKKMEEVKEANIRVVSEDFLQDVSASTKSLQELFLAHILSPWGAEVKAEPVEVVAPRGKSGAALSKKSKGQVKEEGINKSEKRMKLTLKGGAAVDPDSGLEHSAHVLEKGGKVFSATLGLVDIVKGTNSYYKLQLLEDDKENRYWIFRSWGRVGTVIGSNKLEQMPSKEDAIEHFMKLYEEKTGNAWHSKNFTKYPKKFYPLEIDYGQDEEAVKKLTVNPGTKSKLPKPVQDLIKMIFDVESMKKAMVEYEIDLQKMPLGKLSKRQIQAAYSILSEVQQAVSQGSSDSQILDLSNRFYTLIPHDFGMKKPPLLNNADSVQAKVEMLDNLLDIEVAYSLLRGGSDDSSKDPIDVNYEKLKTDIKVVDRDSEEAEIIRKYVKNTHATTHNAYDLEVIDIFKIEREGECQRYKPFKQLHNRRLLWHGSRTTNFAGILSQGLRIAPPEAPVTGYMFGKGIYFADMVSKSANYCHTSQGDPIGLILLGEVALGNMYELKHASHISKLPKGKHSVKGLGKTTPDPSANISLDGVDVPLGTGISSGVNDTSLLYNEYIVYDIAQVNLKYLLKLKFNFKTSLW

On to `Cc1nn(C)c2ncc(C(=O)NC3C/C(=C\c4ccc(F)c(F)c4)C(=O)/C(=C/c4ccc(F)c(F)c4)C3)c(Cl)c12` (centres unmarked) [JCS085], for which the “PARP1-trapping potency relative to JC099 (PARP1 in the chromatin-bound fraction)” value is “higher potency in PARP1-trapping”.
As to `NCCOc1ccc(C(=O)NC2C/C(=C\c3ccc(F)c(F)c3)C(=O)/C(=C/c3ccc(F)c(F)c3)C2)cc1` (centres unmarked) [JCS036], the “PARP1 trapped on DNA lesions” value (0.5 μM) is “trapped”.
On to `CN1CCN(CCOc2ccc(C(=O)NC3C/C(=C\c4ccc(F)c(F)c4)C(=O)/C(=C/c4ccc(F)c(F)c4)C3)cc2)CC1` (centres unmarked) [JCS038, N-(3,5-Bis((E)-3,4-difluorobenzylidene)-4-oxocyclohexyl)-4-(2-(4-methylpiperazin-1-yl)ethoxy)benz-amide], for which, where the note is “0.3 μM”, the “PARP1 trapped on DNA lesions” value is “trapped”.
`O=C1/C(=C/c2ccc(F)c(F)c2)CC(NC(=O)c2ccc(OCCN3CCN4CCCC4C3)cc2)C/C1=C\c1ccc(F)c(F)c1` (centres unmarked) [JCS135, N-(3,5-Bis((E)-3,4-difluorobenzylidene)-4-oxocyclohexyl)-4-(2-(hexahydropyrrolo[1,2-a]pyrazin-2(1H)-yl)ethoxy)benzamide]: the “PARP1-trapping potency relative to JC099 (PARP1 in the chromatin-bound fraction)” value is “higher potency in PARP1-trapping”.
Turning to `O=C1/C(=C/c2ccc(F)c(F)c2)CC(NC(=O)c2ccc(NC(=O)N3CCCC3)cc2)C/C1=C\c1ccc(F)c(F)c1` (centres unmarked) [JCS054, N-(4-((3,5-bis((E)-3,4-difluorobenzylidene)-4-oxocyclohexyl)carbamoyl)phenyl)pyrrolidine-1-carboxamide], the “PARP1-trapping potency relative to JC099 (PARP1 in the chromatin-bound fraction)” value is recorded as “higher potency in PARP1-trapping”. Besides, the “PARP1 trapped on DNA lesions” value (0.3 μM) is listed as “trapped”.
On to `O=C1/C(=C/c2ccc(F)c(F)c2)CC(NC(=O)c2ccc(OCCN3CC4OCCOC4C3)cc2)C/C1=C\c1ccc(F)c(F)c1` (centres unmarked) [JCS137, N-(3,5-Bis((E)-3,4-difluorobenzylidene)-4-oxocyclohexyl)-4-(2-(hexahydro-6H-[1,4]dioxino[2,3-c]pyrrol-6-yl)ethoxy)benzamide], for which the “PARP1-trapping potency relative to JC099 (PARP1 in the chromatin-bound fraction)” value was “their potencies were less than JC099”.
The same measure, in the same setting: for `CCc1ccc2c(c1)CCC1(CCN(CCOc3ccc(C(=O)NC4C/C(=C\c5ccc(F)c(F)c5)C(=O)/C(=C/c5ccc(F)c(F)c5)C4)cc3)CC1)O2` (centres unmarked) [JCS078, N-(3,5-bis((E)-3,4-difluorobenzylidene)-4-oxocyclohexyl)-4-(2-(6-ethylspiro[chromane-2,4′-piperidin]-1′-yl)ethoxy)benzamide] the value was “increased the accumulation of PARP1 in the chromatin-bound fraction than JC099”; for `CCN(CC)CCOc1ccc(C(=O)NC2CC(Cc3ccc(F)c(F)c3)C(=O)C(Cc3ccc(F)c(F)c3)C2)cc1` (centres unmarked) [JCS074, N-(3,5-bis(3,4-difluorobenzyl)-4-oxocyclohexyl)-4-(2-(diethylamino)ethoxy)benzamide], “increased the accumulation of PARP1 in the chromatin-bound fraction than JC099”.
Turning to `O=C1/C(=C/c2ccc(F)c(F)c2)CC(NC(=O)c2ccc(OCCN3CCCCC3)cc2)C/C1=C\c1ccc(F)c(F)c1` (centres unmarked) [JCS16], the “PARP1 trapped on DNA lesions” value (0.5 μM) is “trapped”.
Take `CCN(CC)CCOc1ccc(C(=O)NC2C/C(=C\c3ccc(F)c(F)c3)C(=O)/C(=C/c3ccc(F)c(F)c3)C2)nc1` (centres unmarked) [JCS131, N-(3,5-Bis((E)-3,4-difluorobenzylidene)-4-oxocyclohexyl)-5-(2-(diethylamino)ethoxy)picolinamide]: the “PARP1-trapping potency relative to JC099 (PARP1 in the chromatin-bound fraction)” value is on record as “higher potency in PARP1-trapping”.
For `O=C1/C(=C/c2ccc(F)c(F)c2)CC(NC(=O)c2ccc(NCCN3CCOCC3)cc2)C/C1=C\c1ccc(F)c(F)c1` (centres unmarked) [JCS042, N-(3,5-Bis((E)-3,4-difluorobenzylidene)-4-oxocyclohexyl)-4-((2-morpholinoethyl)amino)benzamide], the “PARP1 trapped on DNA lesions” value (0.3 μM) is recorded as “trapped”.
As to `CC(C)N(CCOc1ccc(C(=O)NC2C/C(=C\c3ccc(F)c(F)c3)C(=O)/C(=C/c3ccc(F)c(F)c3)C2)cc1)C(C)C` (centres unmarked) [JCS013, N-(3,5-Bis((E)-3,4-difluorobenzylidene)-4-oxocyclohexyl)-4-(2-(diisopropylamino)ethoxy)benzamide], the “PARP1-trapping potency relative to JC099 (PARP1 in the chromatin-bound fraction)” value was “higher potency in PARP1-trapping”. The “PARP1 trapped on DNA lesions” value (0.5 μM and 2 μM) is on record as “trapped”.
In the case of `O=C1/C(=C/c2ccc(F)c(F)c2)CC(NC(=O)c2ccc(OCCN3CCCCC3)c(OCc3ccccc3)c2)C/C1=C\c1ccc(F)c(F)c1` (centres unmarked) [JCS102, 3-(Benzyloxy)-N-(3,5-bis((E)-3,4-difluorobenzylidene)-4-oxocyclohexyl)-4-(2-(piperidin-1-yl)eth-oxy)benzamide], the “PARP1-trapping potency relative to JC099 (PARP1 in the chromatin-bound fraction)” value is given as “higher potency in PARP1-trapping”.
With `O=C1/C(=C/c2ccc(F)c(F)c2)CC(NC(=O)c2ccc(NC(=O)N3CCN(C(=O)C4CC4)CC3)cc2)C/C1=C\c1ccc(F)c(F)c1` (centres unmarked) [JCS057, N-(4-((3,5-bis((E)-3,4-difluorobenzylidene)-4-oxocyclohexyl)carbamoyl)phenyl)-4-(cyclopropanecarbonyl)piperazine-1-carboxamide], the “PARP1 trapped on DNA lesions” value (0.3 μM) is “trapped”.
`CCCN(CCC)CCOc1ccc(C(=O)NC2C/C(=C\c3ccc(F)c(F)c3)C(=O)/C(=C/c3ccc(F)c(F)c3)C2)cc1` (centres unmarked) [JCS011, N-(3,5-Bis((E)-3,4-difluorobenzylidene)-4-oxocyclohexyl)-4-(2-(dipropylamino)ethoxy)benzamide]: the “PARP1-trapping potency relative to JC099 (PARP1 in the chromatin-bound fraction)” value is “higher potency in PARP1-trapping”. Also, for the setting “0.5 μM and 2 μM”, the “PARP1 trapped on DNA lesions” value was “trapped”.
Regarding `O=C1/C(=C/c2ccc(F)c(F)c2)CC(NC(=O)c2ccc(NCCN3CCN(Cc4ccccc4)CC3)cc2)C/C1=C\c1ccc(F)c(F)c1` (centres unmarked) [JCS087, 4-((2-(4-benzylpiperazin-1-yl)ethyl)amino)-N-(3,5-bis((E)-3,4-difluorobenzylidene)-4-oxocyclohexyl)benzamide], the “PARP1-trapping potency relative to JC099 (PARP1 in the chromatin-bound fraction)” value is on record as “higher potency in PARP1-trapping”.
`O=C1/C(=C/c2ccc(F)c(F)c2)CC(NC(=O)c2ccc(OCCN3CCC(C(F)(F)F)CC3)cc2)C/C1=C\c1ccc(F)c(F)c1` (centres unmarked) [JCS077, N-(3,5-bis((E)-3,4-difluorobenzylidene)-4-oxocyclohexyl)-4-(2-(4-(trifluoromethyl)piperidin-1-yl)ethoxy)benzamide]: the “PARP1-trapping potency relative to JC099 (PARP1 in the chromatin-bound fraction)” value is “increased the accumulation of PARP1 in the chromatin-bound fraction than JC099”.
`O=C(CN1CCOCC1)Nc1ccc(C(=O)NC2C/C(=C\c3ccc(F)c(F)c3)C(=O)/C(=C/c3ccc(F)c(F)c3)C2)cc1` (centres unmarked) [JCS047, N-(3,5-bis((E)-3,4-difluorobenzylidene)-4-oxocyclohexyl)-4-(2-morpholinoacetamido)benzamide]: the “PARP1 trapped on DNA lesions” value (0.3 μM) is listed as “trapped”.
Regarding “3-amino-N-(3,5-bis((E)-3,4-difluorobenzylidene)-4-oxocyclohexyl)-5-(4-(isopropylsulfonyl)phenyl)pyrazine-2-carboxamide [JCS089]”, the “PARP1-trapping potency relative to JC099 (PARP1 in the chromatin-bound fraction)” value is listed as “their potencies were less than JC099”.
Consider `CCCCNCCOc1ccc(C(=O)NC2C/C(=C\c3ccc(F)c(F)c3)C(=O)/C(=C/c3ccc(F)c(F)c3)C2)cc1` (centres unmarked) [JCS034, N-(3,5-Bis((E)-3,4-difluorobenzylidene)-4-oxocyclohexyl)-4-(2-(butylamino)ethoxy)benzamide], for which the “PARP1-trapping potency relative to JC099 (PARP1 in the chromatin-bound fraction)” value is listed as “higher potency in PARP1-trapping”. Moreover, the “PARP1 trapped on DNA lesions” value (0.5 μM) is on record as “trapped”.
As for `CC(=O)c1cc(C(=O)NC2C/C(=C\c3ccc(F)c(F)c3)C(=O)/C(=C/c3ccc(F)c(F)c3)C2)ccc1OCCN1CCCCC1` (centres unmarked) [JCS103, 3-Acetyl-N-(3,5-bis((E)-3,4-difluorobenzylidene)-4-oxocyclohexyl)-4-(2-(piperidin-1-yl)ethoxy)-benzamide], the “PARP1-trapping potency relative to JC099 (PARP1 in the chromatin-bound fraction)” value was “higher potency in PARP1-trapping”.
With `CCCN(CCC)CCNc1ccc(C(=O)NC2C/C(=C\c3ccc(F)c(F)c3)C(=O)/C(=C/c3ccc(F)c(F)c3)C2)cc1` (centres unmarked) [JCS065, N-(3,5-Bis((E)-3,4-difluorobenzylidene)-4-oxocyclohexyl)-4-((2-(dipropylamino)ethyl)amino)benz-amide], the “PARP1-trapping potency relative to JC099 (PARP1 in the chromatin-bound fraction)” value is listed as “higher potency in PARP1-trapping”.
For the compound `CCCCCN(CCCCC)CCOc1ccc(C(=O)NC2C/C(=C\c3ccc(F)c(F)c3)C(=O)/C(=C/c3ccc(F)c(F)c3)C2)cc1` (centres unmarked) [JCS023, N-(3,5-Bis((E)-3,4-difluorobenzylidene)-4-oxocyclohexyl)-4-(2-(dipentylamino)ethoxy)benzamide], the “PARP1 trapped on DNA lesions” value runs as follows: (0.5 μM and 2 μM) “trapped”; (0.5 μM) “trapped”.
Consider `CCN(CC)CCNc1ccc(C(=O)NC2C/C(=C\c3ccc(F)c(F)c3)C(=O)/C(=C/c3ccc(F)c(F)c3)C2)cc1` (centres unmarked) [JCS070, N-(3,5-Bis((E)-3,4-difluorobenzylidene)-4-oxocyclohexyl)-4-((2-(diethylamino)ethyl)amino)benz-amide], for which the “PARP1-trapping potency relative to JC099 (PARP1 in the chromatin-bound fraction)” value is given as “higher potency in PARP1-trapping”.
For `O=C1/C(=C/c2ccc(F)c(F)c2)CC(NC(=O)c2ccc(NCCN3CCCCC3)cc2)C/C1=C\c1ccc(F)c(F)c1` (centres unmarked) [JCS028, N-(3,5-Bis((E)-3,4-difluorobenzylidene)-4-oxocyclohexyl)-4-((2-(piperidin-1-yl)ethyl)amino)-benzamide], the “PARP1 trapped on DNA lesions” value is recorded as “trapped” (0.5 μM and 2 μM); “trapped” (0.5 μM).
In the case of `O=C1/C(=C/c2ccc(F)c(F)c2)CC(NC(=O)c2ccc(NCCCN3CCCC3)cc2)C/C1=C\c1ccc(F)c(F)c1` (centres unmarked) [JCS044, N-(3,5-Bis((E)-3,4-difluorobenzylidene)-4-oxocyclohexyl)-4-((3-(pyrrolidin-1-yl)propyl)amino)benz-amide], the “PARP1 trapped on DNA lesions” value (0.3 μM) is on record as “trapped”.
